From patent publication US8029764B2, “Methods for detection of colorectal cancer” (The Johns Hopkins University, priority 2001, dated 2011)

System: colorectal tissue transcripts
Test: SAGE of normal, adenoma and cancer colorectal tissue (transcript tag counts)
Design: species or system human
Conditions: for AD1 (SAGE tag count): SAGE library AD1; for AD2 (SAGE tag count): SAGE library AD2; for CA1 (SAGE tag count): SAGE library CA1; for CA2 (SAGE tag count): SAGE library CA2; for NC1 (SAGE tag count): SAGE library NC1; for NC2 (SAGE tag count): SAGE library NC2
In short: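 Tag counts reflect transcript abundance, each mRNA represented by a 15-base tag near its 3′ end. Excluding MHC tags, linkers and duplicate ditags, libraries were compared statistically: two each of normal epithelium, FAP-derived adenomas (>70% neoplastic) and carcinomas.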

Row | Sequence | AD1 (SAGE tag count) | AD2 (SAGE tag count) | CA1 (SAGE tag count) | CA2 (SAGE tag count) | NC1 (SAGE tag count) | NC2 (SAGE tag count)
1 | CTGACCTGTG (chemistry not fully specified) | 48 | 18 | 16 | 46 | 88 | 130
2 | CTGGATCTGG (chemistry not fully specified; the letters are possibly those of the target site) | 3 | 9 | 5 | 10 | 21 | 21
3 | CTGGCAAAGG (chemistry not fully specified) | 1 | 0 | 0 | 0 | 14 | 22
4 | CTGGCCCTCG (chemistry not fully specified) | 1 | 3 | 15 | 14 | 186 | 52
5 | CTGGCTATCC (chemistry not fully specified) | 0 | 0 | 0 | 1 | 7 | 3
6 | CTGGGCCTCT (chemistry not fully specified) | 2 | 2 | 3 | 3 | 22 | 22
7 | CTGTACTTGT (chemistry not fully specified) | 1 | 1 | 0 | 0 | 9 | 5
8 | CTGTGTGGCT (chemistry not fully specified; the letters are possibly those of the target site) | 1 | 0 | 0 | 0 | 0 | 12
9 | CTTACAAGCA (chemistry not fully specified) | 2 | 3 | 4 | 3 | 21 | 13
10 | CTTAGAGGGG (chemistry not fully specified) | 0 | 1 | 1 | 1 | 16 | 22
11 | CTTATGGTCC (chemistry not fully specified) | 0 | 1 | 1 | 0 | 36 | 11
12 | CTTCCAGCTA (chemistry not fully specified) | 22 | 20 | 14 | 19 | 64 | 31
13 | CTTCTTGCCC (chemistry not fully specified) | 2 | 2 | 0 | 1 | 29 | 2
14 | CTTGACATAC (chemistry not fully specified) | 4 | 4 | 0 | 0 | 18 | 20
15 | CTTGATTCCC (chemistry not fully specified) | 5 | 0 | 2 | 5 | 26 | 9
16 | GACATCAAGT (chemistry not fully specified) | 23 | 14 | 47 | 17 | 198 | 87
17 | GACCAGCCCA (chemistry not fully specified) | 3 | 2 | 12 | 5 | 23 | 21
18 | GACCAGTGGC (chemistry not fully specified) | 4 | 0 | 2 | 0 | 21 | 44
19 | GACGCGGCGC (chemistry not fully specified) | 10 | 17 | 12 | 17 | 30 | 47
20 | GAGAGCTCCC (chemistry not fully specified) | 3 | 0 | 2 | 1 | 5 | 11
21 | GAGCACCGTG (chemistry not fully specified) | 1 | 0 | 0 | 1 | 7 | 4
22 | GATATGTAAA (chemistry not fully specified) | 0 | 0 | 0 | 0 | 1 | 10
23 | GATCCCAACT (chemistry not fully specified) | 5 | 7 | 1 | 1 | 9 | 29
24 | GATGAATCCG (chemistry not fully specified) | 2 | 2 | 1 | 2 | 12 | 14
25 | GATGACCCCC (chemistry not fully specified) | 4 | 3 | 3 | 3 | 42 | 49
26 | GCAAGAAAGT (chemistry not fully specified) | 0 | 4 | 0 | 1 | 48 | 0
27 | GCACAGGTCA (chemistry not fully specified) | 1 | 0 | 1 | 1 | 5 | 9
28 | GCACCCTTTC (chemistry not fully specified) | 0 | 0 | 1 | 0 | 13 | 5
29 | GCACCTGTCG (chemistry not fully specified) | 0 | 0 | 1 | 0 | 2 | 9
